Data: patent US20230220010A1, “BROAD-SPECTRUM ANTIVIRAL PEPTIDES” (priority 2020, published 2023)
“Also recorded” adds a separate entry of the source. Square brackets hold non-standard residues; d marks the D form. Ends that are not written are not given here. Peptide text beside a SMILES is read from it.

What was measured:
[1] = system: Lassa pseudovirus (LASVpv); conditions: for EC50: 72 h
[2] = system: H3N2 influenza virus; conditions: for EC50: influenza virus
[3] = Cytotoxicity assay, ALAMARBLUE, HEK cells
[4] = system: Lassa pseudovirus (LASVpv); conditions: 1 h, 50 μM
[5] = system: HEK cells; assay: Cytotoxicity with varying serum (FBS) concentrations, HEK cells; conditions: for effect of serum concentration on cytotoxicity: 0-50% FBS
[6] = system: HEK 293T/17 cells; assay: Cytotoxicity assay, CELLTITER-GLO, HEK cells; conditions: for cytotoxicity against HEK cells: CELLTITER-GLO, 3 days; for cell viability, HEK 293T/17 cells: peptide concentrations approximately below 4 μM, about 72 hours
[7] = system: HEK cells; assay: Cytotoxicity with varying cell densities, HEK cells; conditions: 5×10^3 to 1×10^5 cells/well
[8] = system: Vero E6 cells; assay: Cytotoxicity assay, CELLTITER-GLO, Vero E6 cells; conditions: peptide concentrations at or below 2 μM, about 72 hours
[9] = system: human adenovirus 5; conditions: read-out: EC50 against adenovirus (AdV); plaque assay
[10] = system: dengue virus type 2; conditions: read-out: EC50 against dengue virus (DENV); plaque assay
[11] = system: HEK cells; assay: Cytotoxicity assay, ALAMARBLUE, HEK cells; conditions: HEK cells with or without LASVpv, ALAMARBLUE

Compound | EC50 [2] [µM] | EC50 [1] [µM] | EC50 [3] [µM] | also measured
KDGWLLLRLGYGRR [Cterm-Cat] | – | – | – | antiviral activity against LASVpv [1]: next most active peptide
WVLVLRLGY-NH2 [VVRG, WVLVLRLGY] | 6.1 | – | – | –
RRGWVLDLVLYYGRR-NH2 [*VDVY*, RRGWVLDLVLYYGRR] | 12 | 5 | > 100 | –
RRWLLLLNLLLLWRR-NH2 [TL4NdG, RRWLLLLNLLLLWRR] | – | – | – | inhibition of LASVpv at 50 μM peptide [4]: greater than 50%; effect of serum concentration on cytotoxicity [5]: essentially unchanged by serum concentration; cytotoxicity against HEK cells [6]: least cytotoxic test peptide; also recorded: much less cytotoxic than TL3; also recorded: least cytotoxic peptide tested; effect of cell density on cytotoxicity [7]: remained consistent as cell density increases; cell viability, Vero E6 cells [8]: High cell viability; EC50 [9]: > 10 µM
RRGFSLKLALLYRGWLLLLRLGYGRR-NH2 [IT1-c] | 1.2 | – | – | –
CC[C@H](C)[C@H](NC(=O)CN)C(=O)NCC(=O)N[C@@H](C)C(=O)N[C@H](C(=O)N[C@@H](CC(C)C)C(=O)N[C@@H](CCCCN)C(=O)N[C@H](C(=O)N[C@@H](CC(C)C)C(=O)N[C@H](C(=O)N[C@H](C(=O)NCC(=O)N[C@@H](CC(C)C)C(=O)N1CCC[C@H]1C(=O)N[C@@H](C)C(=O)NCC(=O)N[C@H](C(=O)N[C@@H](CO)C(=O)N[C@@H](Cc1c[nH]c2ccccc12)C(=O)N[C@H](C(=O)N[C@@H](CCCCN)C(=O)N[C@@H](CCCNC(=N)N)C(=O)N[C@@H](CCCCN)C(=O)N[C@@H](CCCNC(=N)N)C(=O)N[C@@H](CCC(N)=O)C(=O)N[C@@H](CCC(N)=O)C(N)=O)[C@@H](C)CC)[C@@H](C)CC)[C@@H](C)O)[C@@H](C)O)C(C)C)C(C)C [Mel-L16G, reference compound] | – | 28 | 21 | –
RRGWLLLRLLLWGRR-NH2 [TL3, RRGWLLLRLLLWGRR] | – | – | – | cytotoxicity in 0% FBS [5]: does display cytotoxicity; cytotoxicity in 10%, 25%, and 50% FBS [5]: completely noncytotoxic; effect of cell density on cytotoxicity [7]: increases as cell density increases; cell viability, Vero E6 cells [8]: High cell viability
RRGFSLKLALLKDGWLLLLRLGYGRR-NH2 [IT1-f] | 1.5 | 1.1 | 20 | –
RRRRRRRRRWC-NH2 [Arg9, RRRRRRRRRWC, reference compound] | 6.7 | > 100 | > 75 | –
RRGFSLKLKLLYRGWALALRLGYGRR-NH2 [IT1-e] | 0.6 | 1.2 | > 50 | –
KLALLKDGWLLLR [Mid-Cat] | – | – | – | antiviral activity against LASVpv [1]: moderate potency
LALLKDGWLLL [Mid] | – | – | – | antiviral activity against LASVpv [1]: no antiviral activity
WALRLYLGVY-NH2 [ARYV, WALRLYLGVY] | 3.7 | 7.9 | – | –
RRGWGLRLVLYYGRR-NH2 [*GRVY*, RRGWGLRLVLYYGRR] | 9.1 | 2.1 | – | –
PLZYLRLLRGQF [TP2, reference compound] | – | – | – | activity against H3N2 [2]: some antiviral activity
GIGAVLKGLATGLPAGISWIKQQAQL-NH2 [MelN4, reference compound] | – | > 100 | > 100 | –

Compound | EC50 [2] [µM] | EC50 [1] [µM] | EC50 [3] [µM] | also measured
RRWLLLLRLLLLWRR-NH2 [TL4dG, RRWLLLLRLLLLWRR] | – | – | – | cytotoxicity against HEK cells [6]: less cytotoxic than TL3
RRGWALRLVLAY-NH2 [*ARVA, RRGWALRLVLAY] | 0.9 | 6.2 | > 75 | –
CC(C)C[C@@H](NC(=O)[C@@H](C)NC(=O)[C@@H](Cc1c[nH]c2ccccc12)NC(=O)CNC(=O)[C@@H](CCCNC(=N)N)NC(=O)[C@H](N)CCCNC(=N)N)C(=O)N[C@H](CCCNC(=N)N)C(=O)N[C@H](CC(C)C)C(=O)N[C@@H](C(=O)N[C@H](CC(C)C)C(=O)N[C@H](C)C(=O)N[C@H](Cc1ccc(O)cc1)C(N)=O)C(C)C [*arva] (H-[dR][dR]G[dW][dA][dL][dR][dL][dV][dL][dA][dY]-NH2) | 0.4 | – | – | –
CC(C)C[C@@H](NC(=O)[C@@H](Cc1c[nH]c2ccccc12)NC(=O)CNC(=O)[C@@H](CCCNC(=N)N)NC(=O)[C@H](N)CCCNC(=N)N)C(=O)N[C@H](CC(C)C)C(=O)N[C@H](CC(C)C)C(=O)N[C@H](CCCNC(=N)N)C(=O)N[C@H](CC(C)C)C(=O)N[C@H](CC(C)C)C(=O)N[C@H](CC(C)C)C(=O)N[C@H](Cc1c[nH]c2ccccc12)C(=O)NCC(=O)N[C@H](CCCNC(=N)N)C(=O)N[C@H](CCCNC(=N)N)C(N)=O [D-TL3, rrgwlllrlllwgrr] (H-[dR][dR]G[dW][dL][dL][dL][dR][dL][dL][dL][dW]G[dR][dR]-NH2) | – | – | – | cell viability, HEK 293T/17 cells [6]: high cell viability
RRGWLLLLNLLLLWGRR-NH2 [TL4N, RRGWLLLLNLLLLWGRR] | – | – | – | CC50 compared to IT1b ([6]; % greater than that of IT1b, HEK cells): over 500%; cytotoxicity against HEK cells [6]: much less cytotoxic than TL3
CC(C)C[C@@H](NC(=O)[C@@H](Cc1c[nH]c2ccccc12)NC(=O)CNC(=O)[C@@H](CCCNC(=N)N)NC(=O)[C@H](N)CCCNC(=N)N)C(=O)N[C@H](CC(C)C)C(=O)N[C@H](CC(C)C)C(=O)N[C@H](CCCNC(=N)N)C(=O)N[C@H](CC(C)C)C(=O)N[C@H](CC(C)C)C(=O)N[C@H](CCCNC(=N)N)C(=O)N[C@H](CC(C)C)C(=O)N[C@H](CC(C)C)C(=O)N[C@H](CC(C)C)C(=O)N[C@H](CCCNC(=N)N)C(=O)N[C@H](CC(C)C)C(=O)N[C@H](CC(C)C)C(=O)N[C@H](Cc1c[nH]c2ccccc12)C(=O)NCC(=O)N[C@H](CCCNC(=N)N)C(=O)N[C@H](CCCNC(=N)N)C(N)=O [D-AHR, rrgwlllrllrlllrllwgrr] (H-[dR][dR]G[dW][dL][dL][dL][dR][dL][dL][dR][dL][dL][dL][dR][dL][dL][dW]G[dR][dR]-NH2) | – | – | – | cell viability, HEK 293T/17 cells [6]: high cell viability
RRGFSLKLALLKDGWLLLRLGYGRR-NH2 [IT1-b] | 2.3 | 1.4 | > 75 | EC50 [10]: 0.225 µM; effect of serum concentration on cytotoxicity [5]: far less cytotoxic as serum concentration increases; effect of cell density on cytotoxicity [7]: remained consistent as cell density increases; cell viability, Vero E6 cells [8]: High cell viability; cell viability in the presence and absence of virus [11]: varies in the presence and absence of virus
RRGWNLRLRLVYGRR-NH2 [*NRRV*, RRGWNLRLRLVYGRR] | 8 | – | 15 | –
RRGWALRLNLYYGRR-NH2 [*ARNY*, RRGWALRLNLYYGRR] | 4.5 | 2.2 | > 100 | cell viability in the presence and absence of virus [11]: no difference
RRGWTLNLTLNYGRR-NH2 [*TNTN*, RRGWTLNLTLNYGRR] | 6.1 | 1.1 | 22 | –
CC(C)C[C@@H](NC(=O)[C@@H](C)NC(=O)[C@@H](CC(C)C)NC(=O)[C@@H](CCCCN)NC(=O)[C@@H](CC(C)C)NC(=O)[C@@H](CO)NC(=O)[C@@H](Cc1ccccc1)NC(=O)CNC(=O)[C@@H](CCCNC(=N)N)NC(=O)[C@H](N)CCCNC(=N)N)C(=O)N[C@H](CC(C)C)C(=O)N[C@H](CCCCN)C(=O)N[C@H](CC(=O)O)C(=O)NCC(=O)N[C@H](Cc1c[nH]c2ccccc12)C(=O)N[C@H](CC(C)C)C(=O)N[C@H](CC(C)C)C(=O)N[C@H](CC(C)C)C(=O)N[C@H](CCCNC(=N)N)C(=O)N[C@H](CC(C)C)C(=O)NCC(=O)N[C@H](Cc1ccc(O)cc1)C(=O)NCC(=O)N[C@H](CCCNC(=N)N)C(=O)N[C@H](CCCNC(=N)N)C(N)=O [D-IT1b, rrgfslklallkdgwlllrlgygrr] (H-[dR][dR]G[dF][dS][dL][dK][dL][dA][dL][dL][dK][dD]G[dW][dL][dL][dL][dR][dL]G[dY]G[dR][dR]-NH2) | – | – | – | cell viability, HEK 293T/17 cells [6]: high cell viability
RRGWNLALTLTYGRR-NH2 [*NATT*, RRGWNLALTLTYGRR] | 0.7 | 1.2 | 43 | cell viability in the presence and absence of virus [11]: no difference
CC(C)C[C@@H](NC(=O)[C@@H](Cc1c[nH]c2ccccc12)NC(=O)[C@@H](CCCNC(=N)N)NC(=O)[C@H](N)CCCNC(=N)N)C(=O)N[C@H](CC(C)C)C(=O)N[C@H](CC(C)C)C(=O)N[C@H](CC(C)C)C(=O)N[C@H](CC(N)=O)C(=O)N[C@H](CC(C)C)C(=O)N[C@H](CC(C)C)C(=O)N[C@H](CC(C)C)C(=O)N[C@H](CC(C)C)C(=O)N[C@H](Cc1c[nH]c2ccccc12)C(=O)N[C@H](CCCNC(=N)N)C(=O)N[C@H](CCCNC(=N)N)C(N)=O [D-TL4NdG, rrwllllnllllwrr] (H-[dR][dR][dW][dL][dL][dL][dL][dN][dL][dL][dL][dL][dW][dR][dR]-NH2) | – | – | – | cell viability, HEK 293T/17 cells [6]: high cell viability
RRGFSLKLRLLYRGWGLALRLGYGRR-NH2 [IT1-d] | 0.4 | 1.3 | > 100 | –
RRGWRLNLNLYYGRR-NH2 [*RNNY*, RRGWRLNLNLYYGRR] | 2.3 | 2.1 | 19 | –
RRGFSLKLLLSYRGWALLRLGYGRR-NH2 [IT1-a] | 1.6 | 1.6 | 19 | cell viability in the presence and absence of virus [11]: varies in the presence and absence of virus
